Data published in patent US20260124213A1, “STAPHYLOCOCCUS AUREUS PBP4 INHIBITORS AND METHOD OF USE” (UNIVERSITY OF ROCHESTER, priority 2022, published 2026).
Values joined by “and” are separate entries in the source; they are usually repeats but may differ in a detail not shown here. Identical values can stand only once.

Target: recombinant B. subtilis PBP4 (Bacillus subtilis, UniProt P40750)
Test: BOCILLIN FL fluorescence polarization binding competition
Conditions: compound 50 μM; Ex. 3 series
Method: PBP4 BOCILLIN™ FL Binding Competition Assays. The ability of putative PBP4 inhibitors to impact the active site of recombinant PBP4 was assessed using two previously established BOCILLIN™-FL Penicillin (Penicillin V conjugated to BODIPY fluorescent dye) binding assays. First, fluorescence polarization assays were performed as previously described. Briefly, the indicated amount of the putative PBP4 inhibitor or control antibiotic was incubated with 1 μM recombinant B. subtilis PBP4 or S. aureus PBP2a in potassium phosphate buffer (40 mM K2HPO4 and 10 mM KH2PO4) for 1 hour in black 96-well microtiter plates (Corning Life Sciences®, Corning, NY). Following incubation, 1 μM (final concentration) BOCILLIN™ FL penicillin was added, and the mixture was incubated for 30 minutes. BOCILLIN™ FL fluorescence polarization was measured at (495nm excitation and 545nm emission) in a SpectraMax® M5 multimode plate reader (Molecular Devices®, San Jose, CA). All assays were repeated at least 8 times, averaged, and values falling outside of 2 standard deviations were considered outliers. Resulting data was plotted as percentage BOCILLIN™ FL binding inhibition=(T/U)×100; T=FL polarization of ((PBP4+BOCILLIN™ FL)−(PBP4+BOCILLIN™ FL+inhibitor compound)), U=FL polarization of ((PBP4+BOCILLIN™ FL)−(BOCILLIN™ FL)). Second, gel electrophoresis and fluorescence detection were used to measure BOCILLIN™ FL labeling of PBP4 treated with the known PBP4 inhibitor cefoxitin (positive control), kanamycin (negative control) or 9314848 (test compound). Briefly, 1 μM of recombinant PBP4 was mixed with 0, 50, 500, 2000, or 5000 μM 9314848 or control antibiotic in 50 mM phosphate buffer (pH 7.4) and incubated at 37° C. for 30 minutes. Next 40 μM of BOCILLIN™ FL was added to the reaction mixture and incubated for an additional 30 minutes at 37° C. Reactions were stopped by adding 5×SDS-PAGE gel loading dye, heated at 100° C. for 3 minutes and separated by electrophoresis in 12% SDS-PAGE (2 h, 120 Volts). BOCILLIN™ FL labeled PBP4 was imaged at λ=365 nm using a BioRad© Gel Doc EZ™ Imaging system and the gel was then subsequently stained with Bio-safe Coomassie Brilliant Blue stain (BioRad©, Hercules, CA, USA) to measure the amount of protein present in each reaction condition and analyzed using NIH-ImageJ software. The percent BOCILLIN™ FL binding was calculated by first normalizing the protein present in each reaction condition to that of untreated control and subsequently applying each reaction's protein normalization factor to each reaction's fluorescent signal. The percentage BOCILLIN™ FL binding inhibition was then calculated as the normalized band intensity of antibiotic/compound treated sample as compared to control sample (PBP4+BOCILLIN™ FL in the absence of compound).
To more directly evaluate whether 9314848 is likely to affect PBP4 function, the compound's ability to bind recombinant PBP4 was measured using BOCILLIN™ FL fluorescence polarization displacement assays. The premise for the assay is that the fluorescence polarization of the fluorescently labeled β-lactam, penicillin V (BOCILLIN™ FL), will increase upon binding to its cognate target (i.e., PBP4). Further, compounds that bind PBP4 and inhibit its function would impede BOCILLIN™ FL binding thereby allowing assessment of the protein binding affinity of 9314848 using a simple fluorescence reduction assay.

Sequence of recombinant B. subtilis PBP4 (P40750 22-624): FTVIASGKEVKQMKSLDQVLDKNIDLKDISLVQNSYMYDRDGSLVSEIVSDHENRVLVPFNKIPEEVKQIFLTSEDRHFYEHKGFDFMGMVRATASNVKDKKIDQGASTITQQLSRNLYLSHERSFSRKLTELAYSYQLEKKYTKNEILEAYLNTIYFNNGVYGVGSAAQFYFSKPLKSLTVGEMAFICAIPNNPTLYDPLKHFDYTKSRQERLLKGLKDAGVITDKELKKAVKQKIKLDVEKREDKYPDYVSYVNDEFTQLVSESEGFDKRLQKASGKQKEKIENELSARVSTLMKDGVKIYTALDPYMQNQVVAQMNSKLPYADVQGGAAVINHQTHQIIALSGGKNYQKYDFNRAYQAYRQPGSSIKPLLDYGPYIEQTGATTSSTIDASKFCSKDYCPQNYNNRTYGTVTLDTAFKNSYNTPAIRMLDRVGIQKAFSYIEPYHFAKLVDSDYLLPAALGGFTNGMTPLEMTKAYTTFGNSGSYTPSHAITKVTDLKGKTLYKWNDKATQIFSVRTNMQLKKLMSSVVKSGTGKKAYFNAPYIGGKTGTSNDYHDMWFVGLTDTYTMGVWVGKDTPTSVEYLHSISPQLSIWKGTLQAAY

Question: For `O=C(Nc1ccc2[nH]c(-c3cccs3)nc2c1)c1ccco1` [Compound 1 (7729837)], which “Percentage Bocillin Displacement (%), PBP4 binding” value is on record?
Answer: 25.66% and 25.66 ± 18.09%
